The numbers were not newly measured in patent publication US9278976B2, “Aminotetrahydropyrans as dipeptidyl peptidase-IV inhibitors for the treatment of diabetes” (Merck Sharp & Dohme Corp., priority 2008, dated 2016), which cites them from elsewhere.

For data set [1] the following is noted: mouse, cyclophosphamide-induced neutropenia.
The conditions of data set [2]: rats; doubled from day 7.

With `CC(C)[C@H](N)C(=O)N1CCC[C@H]1B(O)O` [Val-Boro-Pro], the hematopoiesis entry in data set [1] was “stimulated hematopoiesis”. Consider `CC(C)N1CCC(c2ccccc2)(c2ccccc2)CC1` [Prodipine, Pro-Pro-diphenyl-phosphonate], for which the cardiac allograft survival in data set [2] was 14 day.
